Reference: patent publication US7527792B1, “Pharmaceutical composition comprising an anti-cancer and at least a peptide” (Synt : EM, priority 1998, dated 2009)
Where “and” joins values, the source holds several entries; their conditions need not be identical. Equal entries are not always repeated. Where two headings read alike, the source gives them in different places. Numbered stars: 1 amine (or outer) side, 2 acyl side, 3 side chain; on linkers, the order of the positions; unused ones are H or OH. Peptide text beside a SMILES is read from it. * marks the point of attachment. X1 = COc1cccc2c1C(=O)c1c(O)c3c(c(O)c1C2=O)C[C@@](O)(C(=O)CO)C[C@@H]3O[C@H]1C[C@H](NC(=O)CCN2C(=O)CC(*)C2=O)[C@H](O)[C@H](C)O1; Doxorubicin(3'-N) = COc1cccc2c1C(=O)c1c(O)c3c(c(O)c1C2=O)C[C@@](O)(C(=O)CO)C[C@@H]3O[C@H]1C[C@H](N*)[C@H](O)[C@H](C)O1; Suc = O=C(CCC(=O)[*:2])[*:1]

Columns and labels:
Assay type in all cases: cell-based, human
resistant K562/ADR cells [1] = assay: Cytotoxicity, MTT test, resistant line; details: for F. Rev (reversion factor): K562/ADR, effect of the vector on susceptibility, free doxo versus compound; for F. Res (resistance factor): ratio of IC50 values, resistant line K562/ADR versus susceptible K562
Experimental: (§1) The susceptible K562 chronic myeloid leukaemia cells, resistant K562/ADR cells and HL60/R10 promyeloid leukaemia cells are of human origin and were obtained commercially from the ATCC. The cells are inoculated at a rate of approximately 10^4 cells per well, 24 hours before adding the products. The cells are kept in culture at 37° C. in an atmosphere at 95% humidity and 5% CO2 in an OptiMem medium.
[…] At the end of the culture period, MTT (3-(4,5-dimethylthiazole-2-yl)-2,5-diphenyltetrazolium bromide) is added into the wells and the culture plates are then incubated for 4 hours in the incubator. The resulting crystalline formazan deposit is then dissolved by adding 200 μl of DMF/SDS. The optical density (OD) is measured at 550 nm (reference 630 nm) using a microplate reader.
(§2) The graphic representation of the OD percentages of the wells treated as a function of the concentration of products is used to determine the IC50 which corresponds to the concentration of product that inhibits 50% of growth.
The IC50 values are used to quantify the resistance factor (F. Res) of the resistant lines using the following ratio:
The reversion factor (F. Rev) corresponds to the effect of a modulator (the vector) on the susceptibility of the cells to the anti-tumour agents according to the following ratio:
The susceptibility of the cells to anti-tumour agents was measured using the MTT test under the experimental conditions defined above wherein the relationship between the optical density and the number of viable cells is linear.

[2] = system: HL60/R10 promyeloid leukaemia cells; assay: Cytotoxicity, MTT test, HL60/R10
Experimental: as §1
The susceptible K562 cells and resistant K562/ADR cells are incubated either with free doxorubicin or with doxorubicin in a vector at increasing concentrations after 48 hours in culture in the presence of the products. At the end of the culture period, MTT (3-(4,5-dimethylthiazole-2-yl)-2,5-diphenyltetrazolium bromide) is added into the wells and the culture plates are then incubated for 4 hours in the incubator. The resulting crystalline formazan deposit is then dissolved by adding 200 μl of DMF/SDS. The optical density (OD) is measured at 550 nm (reference 630 nm) using a microplate reader.
as §2
The reversion factor (F. Rev) corresponds to the effect of a modulator (the vector) on the susceptibility of the cells to the anti-tumour agents according to the following ratio: […]

resistant K562/ADR cells [3] = assay: Internalisation by flow cytometry; details: 3 μM, 30 min incubation at 37° C.
Experimental: as §1
The susceptible K562 cells and resistant K562/ADR cells are incubated either with free doxorubicin or with doxorubicin in a vector at a concentration of 3 μM. After 30 minutes of incubation at 37° C., the cells are washed three times with PBS. The internalisation of the products is then analysed by flow cytometry. The samples are analysed with a flow cytometer equipped with a 15 mA argon laser. The fluorescence emitted is recorded on a logarithmic scale at (575 NM) nm after an excitation at (488) nm. The fluorescence is measured on 10,000 cells selected according to the […] parameters. The results are expressed as a percentage of positive cells of the fluorescence intensity logarithm. The results are analysed using the software program Cell Quest.
The susceptible K562 cells and resistant K562/ADR cells are incubated either with free doxorubicin or with doxorubicin in the vector. After 30 min of incubation, the internalisation of the products is measured by flow cytometry.

[4] = system: susceptible K562 chronic myeloid leukaemia cells; assay: Cytotoxicity, MTT test, susceptible line; details: 8 μM, 24 hours incubation

SMILES: COc1cccc2c1C(=O)c1c(O)c3c(c(O)c1C2=O)C[C@@](O)(C(=O)CO)C[C@@H]3O[C@H]1C[C@H](NC(=O)CCC(=O)N[C@@H](CCCNC(=N)N)C(=O)NCC(=O)NCC(=O)N[C@@H](CCCNC(=N)N)C(=O)N[C@@H](CC(C)C)C(=O)N[C@@H](CO)C(=O)N[C@@H](Cc2ccc(O)cc2)C(=O)N[C@@H](CO)C(=O)N[C@@H](CCCNC(=N)N)C(=O)N[C@@H](CCCNC(=N)N)C(=O)N[C@@H](CCCNC(=N)N)C(=O)N[C@@H](Cc2ccccc2)C(=O)N[C@@H](CO)C(=O)N[C@H](C(=O)N[C@@H](CO)C(=O)N[C@H](C(=O)NCC(=O)N[C@@H](CCCNC(=N)N)C(=O)O)C(C)C)C(C)C)[C@H](O)[C@H](C)O1 [Compound 2, doxo-CO-(CH2)2-CO-RGGRLSYSRRRFSVSVGR] ({Doxorubicin(3'-N)-Suc}-RGGRLSYSRRRFSVSVGR-OH; N-terminus and C-terminus assumed)
- IC50 (resistant K562/ADR cells [1]; FIG. 5 experiment, linked versus not linked with peptide, cell line not given, resistant cells implied, read-out: IC50): 19 µM
- F. Rev (reversion factor) (resistant K562/ADR cells [1]): 5
- F. Res (resistance factor) (resistant K562/ADR cells [1]): 0.9
- F. Rev ([2]; HL60/R10): 1.6

SMILES: COc1cccc2c1C(=O)c1c(O)c3c(c(O)c1C2=O)C[C@@](O)(C(=O)CO)C[C@@H]3O[C@H]1C[C@H](NC(=O)CCC(=O)N[C@@H](CCCNC(=N)N)C(=O)NCC(=O)NCC(=O)N[C@@H](CCCNC(=N)N)C(=O)N[C@@H](CC(C)C)C(=O)N[C@@H](CO)C(=O)N[C@@H](Cc2ccc(O)cc2)C(=O)N[C@@H](CO)C(=O)N[C@@H](CCCNC(=N)N)C(=O)N[C@@H](CCCNC(=N)N)C(=O)N[C@@H](CCCNC(=N)N)C(=O)N[C@@H](Cc2ccccc2)C(=O)N[C@@H](CO)C(=O)N[C@H](C(=O)N[C@@H](CO)C(=O)N[C@H](C(=O)NCC(=O)N[C@@H](CCCNC(=N)N)C(=O)O)[C@@H](C)O)[C@@H](C)O)[C@H](O)[C@H](C)O1 [Compound 1, doxo-CO-(CH2)2-CO-RGGRLSYSRRRFSTSTGR] ({Doxorubicin(3'-N)-Suc}-RGGRLSYSRRRFSTSTGR-OH; N-terminus and C-terminus assumed)
- F. Rev (reversion factor) (resistant K562/ADR cells [1]): 2.5
- F. Res (resistance factor) (resistant K562/ADR cells [1]): 0.7

SMILES: COc1cccc2c1C(=O)c1c(O)c3c(c(O)c1C2=O)C[C@@](O)(C(=O)CO)C[C@@H]3O[C@H]1C[C@H](NC(=O)CCC(=O)N[C@@H](CCCNC(=N)N)C(=O)NCC(=O)NCC(=O)N[C@@H](CCCNC(=N)N)C(=O)N[C@@H](CC(C)C)C(=O)N[C@@H](C)C(=O)N[C@@H](Cc2ccc(O)cc2)C(=O)N[C@@H](CC(C)C)C(=O)N[C@@H](CCCNC(=N)N)C(=O)N[C@@H](CCCNC(=N)N)C(=O)N[C@@H](CCCNC(=N)N)C(=O)N[C@@H](Cc2c[nH]c3ccccc23)C(=O)N[C@@H](C)C(=O)N[C@H](C(=O)N[C@@H](CC(C)C)C(=O)N[C@H](C(=O)NCC(=O)N[C@@H](CCCNC(=N)N)C(=O)O)C(C)C)C(C)C)[C@H](O)[C@H](C)O1 [Compound 7, doxo-CO-(CH2)2-CO-RGGRLAYLRRRWAVLVGR] ({Doxorubicin(3'-N)-Suc}-RGGRLAYLRRRWAVLVGR-OH; N-terminus and C-terminus assumed)
- F. Rev (reversion factor) (resistant K562/ADR cells [1]): >26
- F. Res (resistance factor) (resistant K562/ADR cells [1]): 0.85

SMILES: CC[C@H](C)[C@H](NC(=O)CNC(=O)[C@H](CCCNC(=N)N)NC(=O)[C@H](Cc1ccc(O)cc1)NC(=O)[C@H](CO)NC(=O)[C@@H](NC(=O)[C@H](CCCNC(=N)N)NC(=O)[C@H](Cc1ccccc1)NC(=O)[C@H](CO)NC(=O)[C@H](Cc1c[nH]c2ccccc12)NC(=O)[C@H](CCCCN)NC(=O)CCC(=O)N[C@H]1C[C@H](O[C@H]2C[C@](O)(C(=O)CO)Cc3c(O)c4c(c(O)c32)C(=O)c2c(OC)cccc2C4=O)O[C@@H](C)[C@H]1O)C(C)C)C(=O)N[C@@H](CO)C(=O)N[C@@H](Cc1ccc(O)cc1)C(=O)N[C@@H](CCCNC(=N)N)C(=O)N[C@@H](CCCNC(=N)N)C(=O)N[C@@H](CO)C(=O)N[C@@H](CCCNC(=N)N)C(=O)O [Compound 3, doxo-CO-(CH2)2-CO-KWSFRVSYRGISYRRSR] ({Doxorubicin(3'-N)-Suc}-KWSFRVSYRGISYRRSR-OH; N-terminus and C-terminus assumed)
- F. Rev (reversion factor) (resistant K562/ADR cells [1]): 43
- F. Res (resistance factor) (resistant K562/ADR cells [1]): 0.8

SMILES: COc1cccc2c1C(=O)c1c(O)c3c(c(O)c1C2=O)C[C@@](O)(C(=O)CO)C[C@@H]3O[C@H]1C[C@H](NC(=O)CCC(=O)N[C@@H](CCCNC(=N)N)C(=O)N[C@@H](CCCNC(=N)N)C(=O)N[C@@H](CC(C)C)C(=O)N[C@@H](CO)C(=O)N[C@@H](Cc2ccc(O)cc2)C(=O)N[C@@H](CO)C(=O)N[C@@H](CCCNC(=N)N)C(=O)N[C@@H](CCCNC(=N)N)C(=O)N[C@@H](CCCNC(=N)N)C(=O)N[C@@H](Cc2ccccc2)C(=O)O)[C@H](O)[C@H](C)O1 [Compound 4, doxo-CO-(CH2)2-CO-RRLSYSRRRF] ({Doxorubicin(3'-N)-Suc}-RRLSYSRRRF-OH; N-terminus and C-terminus assumed)
- F. Rev (reversion factor) (resistant K562/ADR cells [1]): 2.8
- F. Res (resistance factor) (resistant K562/ADR cells [1]): 1

SMILES: CC[C@H](C)[C@H](NC(=O)[C@H](CCCCN)NC(=O)[C@@H](NC(=O)[C@H](CC(N)=O)NC(=O)[C@H](CCC(=O)O)NC(=O)[C@@H](N)CSC1CC(=O)N(CCC(=O)N[C@H]2C[C@H](O[C@H]3C[C@](O)(C(=O)CO)Cc4c(O)c5c(c(O)c43)C(=O)c3c(OC)cccc3C5=O)O[C@@H](C)[C@H]2O)C1=O)[C@@H](C)CC)C(=O)N[C@@H](Cc1c[nH]c2ccccc12)C(=O)N[C@@H](CC(C)C)C(=O)N[C@@H](CO)C(=O)N[C@@H](CC(C)C)C(=O)N[C@@H](CCCNC(=N)N)C(=O)N[C@@H](CO)C(=O)N[C@@H](Cc1ccc(O)cc1)C(=O)N[C@@H](CC(C)C)C(=O)N[C@@H](CCCCN)C(=O)N[C@@H](CCCNC(=N)N)C(=O)N[C@@H](CCCNC(=N)N)C(=O)O (some centres unmarked) [Compound 6, doxo-SMP-CENIKIWLSLRSYLKRR] (H-C(X1)ENIKIWLSLRSYLKRR-OH; N-terminus and C-terminus assumed)
- F. Rev (reversion factor) (resistant K562/ADR cells [1]): 12.8
- F. Res (resistance factor) (resistant K562/ADR cells [1]): 1.1

SMILES: CC[C@@H](C)[C@@H](NC(=O)[C@@H](CCCCN)NC(=O)[C@H](NC(=O)[C@@H](CCC(N)=O)NC(=O)[C@@H](CCCNC(=N)N)NC(=O)CCSC1CC(=O)N(CCC(=O)N[C@H]2C[C@H](O[C@H]3C[C@](O)(C(=O)CO)Cc4c(O)c5c(c(O)c43)C(=O)c3c(OC)cccc3C5=O)O[C@@H](C)[C@H]2O)C1=O)[C@H](C)CC)C(=O)N[C@H](Cc1c[nH]c2ccccc12)C(=O)N[C@H](Cc1ccccc1)C(=O)N[C@H](CCC(N)=O)C(=O)N[C@H](CC(N)=O)C(=O)N[C@H](CCCNC(=N)N)C(=O)N[C@H](CCCNC(=N)N)C(=O)N[C@H](CCSC)C(=O)N[C@H](CCCCN)C(=O)N[C@H](Cc1c[nH]c2ccccc12)C(=O)N[C@H](CCCCN)C(=O)N[C@H](CCCCN)C(=O)O (some centres unmarked) [Compound 5, doxo-SMP-3MP-rqikiwfgnrrmkwkk]
- percentage of positive cells (internalisation) (resistant K562/ADR cells [3]): 98%
- F. Rev (reversion factor) (resistant K562/ADR cells [1]): 35
- F. Res (resistance factor) (resistant K562/ADR cells [1]): 1.3
- IC50 (resistant K562/ADR cells [1]; resistant line K562/ADR, MTT, 50% growth inhibition, read-out: IC50 K562/ADR): 2 µM

SMILES: COc1cccc2c1C(=O)c1c(O)c3c(c(O)c1C2=O)C[C@@](O)(C(=O)CO)C[C@@H]3O[C@H]1C[C@H](N)[C@H](O)[C@H](C)O1 [Free Doxo, doxorubicin, reference compound]
- percentage of positive cells (internalisation) (resistant K562/ADR cells [3]; listed as free doxorubicin): 5.86% and 5.68%
- survival of the cells [4]: 15%
- survival of the cells (resistant K562/ADR cells [1]; K562/ADR resistant cells, 8 μM, 24 hours incubation, MTT): 100%
- IC50 (resistant K562/ADR cells [1]; resistant line K562/ADR, MTT, 50% growth inhibition, listed as free doxorubicin, read-out: IC50 K562/ADR): 70 µM
- IC50 ([2]; Homo sapiens, HL-60, HL60/R10 doxorubicin-resistant cells, MTT): 40 µM
